The nature of series [1]: Plasma level of compound in mice of the Btk resynthesis experiment. Type of series: in vivo, mouse. Conditions: single oral 50 mg/kg, n=6. As for the experimental part: Btk Protein Resynthesis in Mice. […] At 4, 8, 16, 24, 48, 72, and 96 hours after treatment, spleens and serum were harvested (n=6 mice/timepoint). Spleens were homogenized and assayed on the covalent probe ELISA for Btk target site occupancy and compound concentration in serum was measured.

Series [2] addresses T1, Btk (Homo sapiens, UniProt Q06187). The experiment in a line: Btk target site occupancy ELISA, human primary naïve B cells. Conditions: 10 nM. The series is classed as cell-based. How it is done: (§1) Btk Target Site Occupancy ELISA: An ELISA method for the detection of free uninhibited Btk in mouse, rat, dog, monkey, and human lysates was developed at Celgene Avilomics Research and a validation of this method in human B cell lysate was performed by a CLIA Certified laboratory (Cambridge Biomedical Laboratories, Boston, Mass.) The parameters that were assessed included: accuracy, linearity, dilution, precision (intra and inter-assay), stability, reference range, freeze-thaw cycles, reportable range, specificity, sensitivity, and carryover. […] Standards and samples were transferred to a streptavidin-coated 96-well ELISA plate and mixed while shaking for 1 h at room temperature. […] After wash, goat α-mouse-HRP (1:5000 dilution in PBS+0.05% Tween-20+0.5% BSA) was added and incubated for 1 h at room temperature. The ELISA was developed with addition of tetramethyl benzidine (TMB) followed by Stop Solution and read at OD 450 nm.

Series [3] deals with T2, Btk (Mus musculus, UniProt P35991).
T2 construct: from tissue; host or cells: mouse spleen
T2 sequence (P35991 whole entry): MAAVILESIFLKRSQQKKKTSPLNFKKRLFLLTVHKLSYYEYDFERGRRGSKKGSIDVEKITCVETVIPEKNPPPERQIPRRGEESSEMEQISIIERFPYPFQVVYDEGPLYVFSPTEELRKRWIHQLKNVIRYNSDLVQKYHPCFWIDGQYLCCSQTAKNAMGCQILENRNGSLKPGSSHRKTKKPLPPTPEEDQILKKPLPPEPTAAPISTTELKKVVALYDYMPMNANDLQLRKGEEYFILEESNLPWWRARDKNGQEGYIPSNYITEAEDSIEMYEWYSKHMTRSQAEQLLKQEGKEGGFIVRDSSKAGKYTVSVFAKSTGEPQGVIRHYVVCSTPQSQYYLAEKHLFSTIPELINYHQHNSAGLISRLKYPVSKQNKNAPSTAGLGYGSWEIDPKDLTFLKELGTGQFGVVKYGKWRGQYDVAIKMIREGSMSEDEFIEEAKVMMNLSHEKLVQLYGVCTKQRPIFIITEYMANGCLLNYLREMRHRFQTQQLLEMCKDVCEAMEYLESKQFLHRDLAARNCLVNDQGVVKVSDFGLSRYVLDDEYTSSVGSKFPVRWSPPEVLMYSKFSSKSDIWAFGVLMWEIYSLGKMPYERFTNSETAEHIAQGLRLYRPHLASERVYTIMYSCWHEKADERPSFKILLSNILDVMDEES
Briefly: Btk protein resynthesis in mice (spleen covalent probe ELISA). The series is classed as in vivo. As for the experimental part: Spleen Homogenization: Spleens were harvested from mice, frozen immediately in liquid nitrogen and stored at −80° C. To generate spleen lysates, each spleen was sliced in half and lysed using a Precellys 24 Bead Homogenizer in 500 μL of BioRad Bio-Plex Lysis Buffer plus protease inhibitors. Supernatant was transferred to a fresh microfuge tube and stored frozen at −80° C. until analysis.
as §1
Btk Protein Resynthesis in Mice. […] Spleens were homogenized and assayed on the covalent probe ELISA for Btk target site occupancy and compound concentration in serum was measured.

The test system of series [4] is PGPS 10S-induced arthritis in rats. The experiment in a line: PGPS 10S-induced model of chronic arthritis. Type of series: in vivo, rat. How it is done: PGPS 10S-Induced Model of Chronic Arthritis. Rats were injected intraperitoneal with […] of animal body weight, to induce arthritis. Left and right hind limb lateral ankle widths of each rat were measured three times each prior to PG-PS 10S administration and on day 5. The first inflammatory response peak for both right and left ankles of PG-PS rats was reached on day 4. Rats were assigned to one of five treatment groups. […] Another group was treated with 0.3 mg/kg QD dexamethasone on the 3rd day post first peak (day 7) through day 22.

The target of series [5] is T1, Btk. Briefly: Btk target site occupancy ELISA, Ramos cells. Type of series: cell-based. To be noted: one hour, read-out: EC90 of Btk occupancy (concentration required for 90% occupancy). How it is done: as §1
In series [6] the test system is semi-established CIA Dba1 mice. The experiment in a line: Semi-established collagen induced arthritis (CIA) model. Type of series: in vivo, mouse. To be noted: for disease incidence: study day 33. As for the experimental part: Semi-Established Collagen Induced Arthritis (CIA) Arthritis Model. Experiments were carried out at Bolder Biopath, Boulder, Colo. All experiments were carried out in compliance with regulations of the Institutional Animal Care and Use Committee and were conducted in accordance with principles and procedures dictated by the highest standards of humane animal care. Dba1 mice were injected at the base of the tail with 150 μL of Freund's Complete Adjuvant (Sigma) containing bovine type II collagen (Elastin Products, Owensville, Mo.) (2 mg/ml) on day 0 and again on day 21. Mice were randomized into treatment groups on study day 21, and treatment was initiated. Treatment continued daily (3 mg/kg, 10 mg/kg or 30 mg/kg QD at 24 hour intervals) through day 33, and mice were terminated on day 33 (animals 1-6) or day 34 (animals 7-12). Onset of arthritis occurred between study days 21 and 34. Clinical scores were assessed for each of the paws on study days 21-34 using the following scoring system: 0=normal, 1=one hind or fore paw joint affected or minimal diffuse erythema and swelling, 2=two hind or fore paw joints affected or mild diffuse erythema and swelling, 3=three hind or fore paw joints affected or moderate diffuse erythema and swelling, 4=marked diffuse erythema and swelling or =four digit joints affected, 5=severe diffuse erythema and severe swelling entire paw, unable to flex digits. Spleens and plasma were harvested at necropsy (day 33 for animals 1-6 and day 34 for animals 7-12) and paws were removed and fixed in formalin for histopathological analysis.

Series [7] concerns the target T1, Btk. The experiment in a line: Immunoblot of Btk signaling in α-IgM stimulated Ramos cells. Type of series: cell-based. How it is done: (§2) Following incubation, cells were centrifuged and resuspended in 100 μL of serum-free RPMI and BCR was stimulated with addition of 5 μg/mL α-human IgM. […] Membranes were scanned on a LiCor Odyssey Scanner using infrared fluorescence detection.

In series [8] the target is T1, Btk. Briefly: Immunoblot of Btk kinase activity in human primary naïve B cells. Type of series: cell-based. Conditions: 10 nM. How it is done: as §2
Series [9] deals with collagen-induced arthritis Dba1 mouse model. The experiment in a line: Established collagen induced arthritis model (clinical score, histopathology, body weight). The series is classed as in vivo. How it is done: Established Collagen Induced Arthritis Model: Experiments were carried out at Bolder Biopath, Boulder, Colo. All experiments were carried out in compliance with regulations of the Institutional Animal Care and Use Committee and were conducted in accordance with principles and procedures dictated by the highest standards of humane animal care. […] On study days 25-27, onset of arthritis occurred, and mice were randomized into treatment groups (10/treatment group, 4/group for normal). […] Randomization into each group was done after swelling was obviously established in at least one paw, and attempts were made to assure approximately equal mean scores across the groups at the time of enrollment. […] Treatment continued daily (QD at 24 h intervals) through arthritis day 14.

Series [10] deals with naïve human B-cells. Briefly: B lymphocyte proliferation (3H-thymidine incorporation). The series is classed as cell-based. Conditions: B-cell; α-human IgM stimulated. As for the experimental part: B Lymphocyte Proliferation (^3H-Thymidine Incorporation): A suspension of resting purified naïve human B-cells isolated by negative selection (MACS reagent 130-091-150) in RPMI was prepared at 0.4-0.5×10^6 cells per mL. […] Experiments were performed in triplicate.

The subject of series [11] is TNF-a. The experiment in a line: Inflammatory chemokine and cytokine analysis in CIA mice, TNF-a. Conditions: dexamethasone group. Type of series: in vivo, mouse. How it is done:
Inflammatory Chemokine and Cytokine Analysis: At the termination of the CIA study, mice were sacrificed and blood was harvested via cardiac punch using EDTA as an anticoagulant. Following centrifugation, serum was diluted 1:4 with a mouse serum diluents kit (BioRad cat#171-305004). Levels of various mouse cytokines in plasma were quantified using Bioplex® Suspension Array System according to manufacturer's instruction (BioRad, mTNFa (171-G5023M), mIL-6 (171-G5007M), mKC (171-G5018M), mIFNg (171-G5017M), mIL-17 (Z60-00006Z2), mIL-1β (171-G5002M), mMCP-1 (171-G5019M).

Series [12] has as its system IL-6. The experiment in a line: Inflammatory chemokine and cytokine analysis in CIA mice, IL-6. Type of series: in vivo, mouse. To be noted: dexamethasone group. From the text:
(§3) Inflammatory Chemokine and Cytokine Analysis: At the termination of the CIA study, mice were sacrificed and blood was harvested via cardiac punch using EDTA as an anticoagulant. […] Levels of various mouse cytokines in plasma were quantified using Bioplex® Suspension Array System according to manufacturer's instruction (BioRad, mTNFa (171-G5023M), mIL-6 (171-G5007M), mKC (171-G5018M), mIFNg (171-G5017M), mIL-17 (Z60-00006Z2), mIL-1β (171-G5002M), mMCP-1 (171-G5019M).

In series [13] the test system is KC. The experiment in a line: Inflammatory chemokine and cytokine analysis in CIA mice, KC. Type of series: in vivo, mouse. To be noted: dexamethasone group.
Excerpt: as §3

The target in series [14] is Lyn (Homo sapiens, UniProt P07948). The experiment in a line: Biochemical kinase assay, Lyn (probe selectivity). Conditions: read-out: IC50app Lyn.
Chain of Lyn (P07948 whole entry): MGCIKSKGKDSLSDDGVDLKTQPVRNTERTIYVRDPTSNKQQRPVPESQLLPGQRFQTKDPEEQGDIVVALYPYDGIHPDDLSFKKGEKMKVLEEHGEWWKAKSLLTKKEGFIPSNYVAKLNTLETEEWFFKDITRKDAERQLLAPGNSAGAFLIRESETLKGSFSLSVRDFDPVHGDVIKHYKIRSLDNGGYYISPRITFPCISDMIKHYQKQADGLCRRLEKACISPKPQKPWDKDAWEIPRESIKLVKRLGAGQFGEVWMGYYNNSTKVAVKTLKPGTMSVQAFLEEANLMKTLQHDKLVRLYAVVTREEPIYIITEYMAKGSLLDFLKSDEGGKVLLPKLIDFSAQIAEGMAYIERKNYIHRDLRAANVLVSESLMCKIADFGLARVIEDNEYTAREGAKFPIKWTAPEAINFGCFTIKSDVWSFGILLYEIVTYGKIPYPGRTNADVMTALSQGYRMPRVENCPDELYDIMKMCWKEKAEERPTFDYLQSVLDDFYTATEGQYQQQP
The target of series [15] is T1, Btk. The experiment in a line: Btk biochemical kinase assay. Conditions: read-out: IC50apparent, Btk kinase activity.
Series [16] addresses EGFR (Homo sapiens, UniProt P00533). The experiment in a line: Biochemical kinase assay, EGFR (probe selectivity). To be noted: read-out: IC50app EGFR.
Series [17] addresses Syk (Homo sapiens, UniProt P43405). Briefly: Biochemical kinase assay, Syk (probe selectivity). Conditions: read-out: IC50app Syk.

Entries after “also recorded” stand apart in the source; their conditions may differ. Marks after values point to notes of the source that are not given here. Where only a bound is given, the exact number is not on record here.

T1 sequence (Q06187 whole entry): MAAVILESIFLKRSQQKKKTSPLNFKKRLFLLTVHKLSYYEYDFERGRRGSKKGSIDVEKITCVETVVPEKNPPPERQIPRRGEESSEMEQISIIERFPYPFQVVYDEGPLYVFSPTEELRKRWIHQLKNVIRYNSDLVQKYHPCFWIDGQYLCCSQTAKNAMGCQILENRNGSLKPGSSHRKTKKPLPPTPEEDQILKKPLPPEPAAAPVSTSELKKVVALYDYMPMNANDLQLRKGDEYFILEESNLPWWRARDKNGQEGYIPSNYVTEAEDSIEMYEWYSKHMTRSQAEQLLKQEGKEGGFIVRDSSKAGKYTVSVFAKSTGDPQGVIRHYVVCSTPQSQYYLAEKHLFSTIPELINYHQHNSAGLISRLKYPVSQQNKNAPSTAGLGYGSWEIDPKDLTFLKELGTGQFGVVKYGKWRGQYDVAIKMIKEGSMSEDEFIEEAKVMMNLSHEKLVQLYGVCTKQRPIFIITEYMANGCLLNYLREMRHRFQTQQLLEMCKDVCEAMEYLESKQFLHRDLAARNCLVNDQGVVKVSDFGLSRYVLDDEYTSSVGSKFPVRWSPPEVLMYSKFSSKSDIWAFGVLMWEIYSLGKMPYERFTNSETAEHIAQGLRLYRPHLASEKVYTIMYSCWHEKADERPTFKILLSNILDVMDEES
Chain of EGFR (P00533 25-1210): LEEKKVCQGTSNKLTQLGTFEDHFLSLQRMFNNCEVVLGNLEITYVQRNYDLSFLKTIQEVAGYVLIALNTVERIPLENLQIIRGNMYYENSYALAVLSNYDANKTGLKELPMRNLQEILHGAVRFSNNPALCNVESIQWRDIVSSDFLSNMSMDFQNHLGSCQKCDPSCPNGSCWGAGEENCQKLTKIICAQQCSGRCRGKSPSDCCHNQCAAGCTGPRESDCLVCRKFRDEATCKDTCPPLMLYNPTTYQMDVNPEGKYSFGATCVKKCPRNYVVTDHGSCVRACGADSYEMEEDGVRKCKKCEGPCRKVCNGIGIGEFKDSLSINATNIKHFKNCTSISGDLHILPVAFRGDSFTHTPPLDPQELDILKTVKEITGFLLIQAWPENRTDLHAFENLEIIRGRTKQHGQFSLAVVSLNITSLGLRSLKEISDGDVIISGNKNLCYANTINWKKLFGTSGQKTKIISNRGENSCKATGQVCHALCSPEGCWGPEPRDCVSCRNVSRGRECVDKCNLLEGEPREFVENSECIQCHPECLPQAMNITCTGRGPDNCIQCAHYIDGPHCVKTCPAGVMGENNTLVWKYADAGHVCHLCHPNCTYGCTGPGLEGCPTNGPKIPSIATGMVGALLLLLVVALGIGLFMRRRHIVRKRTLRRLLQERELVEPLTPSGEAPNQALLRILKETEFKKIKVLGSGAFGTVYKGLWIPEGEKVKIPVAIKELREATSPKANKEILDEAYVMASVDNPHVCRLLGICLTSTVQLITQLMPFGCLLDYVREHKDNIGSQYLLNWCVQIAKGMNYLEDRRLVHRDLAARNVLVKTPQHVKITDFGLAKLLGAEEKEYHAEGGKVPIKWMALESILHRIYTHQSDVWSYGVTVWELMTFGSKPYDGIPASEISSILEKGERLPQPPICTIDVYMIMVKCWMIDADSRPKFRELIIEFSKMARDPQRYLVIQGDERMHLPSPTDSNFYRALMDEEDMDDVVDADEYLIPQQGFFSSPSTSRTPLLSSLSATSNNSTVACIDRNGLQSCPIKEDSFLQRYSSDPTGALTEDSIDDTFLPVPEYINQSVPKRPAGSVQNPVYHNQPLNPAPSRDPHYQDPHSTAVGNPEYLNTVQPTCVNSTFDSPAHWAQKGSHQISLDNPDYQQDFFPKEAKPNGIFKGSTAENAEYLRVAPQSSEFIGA

In the case of `C=CC(=O)Nc1cccc(Nc2nc(Nc3ccc(OCCOC)cc3)ncc2F)c1` [Compound 1, N-(3-(5-fluoro-2-(4-(2-methoxyethoxyl)phenylamino)pyrimidin-4-ylamino)phenyl)acrylamide], the “compound concentration in plasma at the 8 hour timepoint” value in series [1] is “undetectable in 5/6 mice; also recorded: absent in 5 of 6 animals”. In [2], this molecule displayed a receptor occupancy at 0.01 µM of 37%. Moreover, the “persistence of action on Btk (occupancy) after circulating compound has disappeared” value in series [3] (mice, single oral 50 mg/kg) is over 12 h. The “new Btk protein, % of pre-dose Btk protein levels” value in [3] (mouse spleen, 24 hours after single oral 50 mg/kg) is 43%; in series [3] (mouse spleen, 48 hours after single oral 50 mg/kg), 71%. The “time for Btk protein to recover to 50% pre-dose levels” value in series [3] (mouse spleen, single oral 50 mg/kg) lay in the range of 24 to 48 h. Further, the “spleen enlargement vs vehicle” value in [4] (10 mg/kg QD, 30 mg/kg QD and 30 mg/kg QOD) was “significantly prevented spleen enlargement”. The “PGPS 10S-induced arthritis” value in [4] (3, 10, 30 mg/kg QD, 30 mg/kg QOD) was “inhibited PGPS 10S-induced arthritis in a dose-dependent manner”. For the same molecule, the “right and left lateral ankle width vs diseased group” value in [4] (PGPS rats, day 7 through day 22) was “significantly lower”. Further, the EC90 in series [5] is 39 nM. Further, the disease incidence in [6] (3 mg/kg QD) stood at 50%; in series [6] (10 mg/kg QD), 17%; in series [6] (30 mg/kg QD), 8%. The “body weight loss associated with severity of disease” value in [6] (all three dose levels) is “prevented the loss in body weight”. The “concentration at which 90% of Btk activity was inhibited” value in [7] is recorded as 35 nM. In addition, in [7] (anti-IgM), the “activation of the downstream kinase Erk” value was “potently inhibited”. Also, the “phosphorylation of Btk on Tyr551” value in series [7] (anti-IgM) was “no effect”. Also, the “phosphorylation of the Btk substrate PLCγ2” value in series [7] (anti-IgM) is on record as “potently inhibited”. The same molecule displayed an inhibition at 0.01 µM in series [8] of 42%. Further, the “inhibition of histopathologic signs of disease (six joints)” value in [9] (10 mg/kg) turned out to be 87%. This molecule also registered an EC50 in [10] of 3 nM.

Consider `C[C@@H]1C[C@H]2[C@@H]3CCC4=CC(=O)C=C[C@]4(C)[C@@]3(F)[C@@H](O)C[C@]2(C)[C@@]1(O)C(=O)CO` [dexamethasone, reference compound], for which the disease incidence in series [6] (dexamethasone group) was found to be 0%. Besides, the “inhibition of histopathologic signs of disease (six joints)” value in series [9] (dexamethasone positive control (0.2 mg/kg)) was determined as 82%. In addition, the TNF-a mean in [11] was determined as 131.0 pg/mL. Also, the IL-6 mean in series [12] is reported as 9.8* pg/mL. For the same molecule, the KC mean in series [13] was determined as 52.9 pg/mL.

As to `C=CC(=O)Nc1cccc(Nc2nc(Nc3cccc(OCCCNC(=O)CCCC(=O)NCCCOCCOCCOCCCNC(=O)CCCC[C@@H]4SC[C@@H]5NC(=O)N[C@@H]54)c3)ncc2C)c1` [Compound 2], the IC50 in series [14] was over 3500 nM; in series [15], 0.5 nM; in [16] it was over 25 nM; in [17], over 1000 nM.
